According to publication PMC7482797 (2020):

Experiments:
[1] = tested on: BCL-2 GQ (DNA, G4) CGGGCGCGGGAGGAATTGGGCGGGAGC; test: fluorescence titration, 640 nm; conditions: 100 mM KCl or NaCl (so in the source); 20 mM PBS, pH 7.4; 1 µM TGP18; one-site fit
[2] = tested on: c-KIT2 GQ (DNA, G4) CGGGCGGGCGCGAGGGAGGGG; test: fluorescence titration, 640 nm; conditions: 100 mM KCl or NaCl (so in the source); 20 mM PBS, pH 7.4; 1 µM TGP18; one-site fit
[3] = tested on: BCL-2 GQ (DNA, G4) CGGGCGCGGGAGGAATTGGGCGGGAGC; test: CD melting; conditions: 100 mM KCl; 20 mM PBS, pH 7.4; 2 µM GQ, TGP18 at 1:1 (2 µM)
[4] = tested on: VEGF GQ (DNA, G4) GGGGGCGGGCCGGGGGCGGGGTCCCGGCGGGGCGGAG; test: fluorescence titration, 640 nm; conditions: 100 mM KCl or NaCl (so in the source); 20 mM PBS, pH 7.4; 1 µM TGP18; one-site fit
[5] = tested on: TEL22 GQ (DNA, G4) AGGGTTAGGGTTAGGGTTAGGG; test: fluorescence lifetime (TCSPC); conditions: qualitative; lifetime 1.6 ns against 0.26 ns free; three-fold excess DNA over titration end point
[6] = tested on: KRAS GQ (DNA, G4) GGGAGGGAGGGAAGGAGGGAGGGAGGGA; test: fluorescence titration, 640 nm; conditions: 100 mM KCl or NaCl (so in the source); 20 mM PBS, pH 7.4; 1 µM TGP18; one-site fit
[7] = tested on: C-MYC GQ (DNA, G4) TGGGGAGGGTGGGGAGGGTGGGGAAGG; test: fluorescence titration, 640 nm; conditions: 100 mM KCl or NaCl (so in the source); 20 mM PBS, pH 7.4; 1 µM TGP18; one-site fit

CCN(CC)c1ccc2cc(C=Cc3ccc4ccc5ccc(C)nc5c4[n+]3C)c(=O)oc2c1
KD [1]: 728 ± 34 nM
KD [2]: 5.5 ± 0.23 µM
ΔTm [3]: 8 °C
KD [4]: 2.12 ± 0.35 µM
binding [5]: yes
KD [6]: 1.3 ± 0.13 µM
KD [7]: 1.5 ± 0.19 µM
